Structures are written as SMILES.

In one test the target is T1, active p38 alpha enzyme (Upstate Biotechnology) (Homo sapiens, UniProt Q16539).
T1 construct: purchased Upstate Biotechnology
T1 sequence (Q16539 whole entry): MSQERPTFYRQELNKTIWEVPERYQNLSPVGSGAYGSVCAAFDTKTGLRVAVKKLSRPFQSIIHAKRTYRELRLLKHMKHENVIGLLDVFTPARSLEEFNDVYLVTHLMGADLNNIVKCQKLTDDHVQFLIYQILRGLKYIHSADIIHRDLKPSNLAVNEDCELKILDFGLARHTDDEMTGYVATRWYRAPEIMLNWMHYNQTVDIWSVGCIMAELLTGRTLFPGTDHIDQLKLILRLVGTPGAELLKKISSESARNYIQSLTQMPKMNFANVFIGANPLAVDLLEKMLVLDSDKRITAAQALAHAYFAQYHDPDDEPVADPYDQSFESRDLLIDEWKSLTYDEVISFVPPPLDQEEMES
The experiment in a line: p38α biochemical assay (ATP turnover, luminescent detection, Cambrex PKlight). As to conditions: p38α biochemical assay, Table 1 Biological Activity. In a few lines: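 Active p38α phosphorylates MapkapK2 whole protein with 1.4 uM final ATP, 2 h at 30C, in Tris/MOPS buffer with MgCl2, CaCl2, EGTA, EDTA, glycerol, β-mercaptoethanol and 1 mg/ml BSA. Compounds pin-delivered from DMSO; total ATP turnover read by luminescence after PKlight addition.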
Turning to `COc1ccc2cc(C(C)C(=O)NCc3nc(-c4ccc(F)cc4)c(-c4nc(C(=O)NC(C)C)cs4)o3)ccc2c1` (stereo not drawn) [Example 313], the IC50 (as a rule, the concentration needed to halve the response being measured) is at most 1000 nM. Consider `CC(C)NC(=O)c1csc(-c2oc(CN3CCN(C(=O)CNC(=O)OC(C)(C)C)CC3)nc2-c2ccc(F)cc2)n1` [Example 438], for which the IC50 is over 1000 nM. Still for that read-out and setting: then `O=C(O)c1csc(-c2c(-c3ccc(F)cc3)n[nH]c2C2CCNCC2)n1` [Example 70, 2-(3-(4-fluorophenyl)-5-(piperidin-4-yl)-1H-pyrazol-4-yl)thiazole-4-carboxylic acid], with over 1000 nM; and `CC(C)NC(=O)c1csc(-c2oc(CN3CCN(C(=O)Cc4ccc(Br)cc4)CC3)nc2-c2ccc(F)cc2)n1` [Example 531], with at most 1000 nM. Still for that read-out and setting: in the case of `Cc1c(C(=O)NCc2onc(-c3ccc(F)cc3)c2-c2nc(C(=O)NC(C)C)cs2)oc2ccccc12` [Example 677] it was over 1000 nM; in that of `CC(C)NC(=O)c1csc(-c2c(-c3ccc(F)cc3)noc2CNC(=O)C2CCCO2)n1` (stereo not drawn) [Example 584], over 1000 nM; in that of `CC(C)NC(=O)c1csc(-c2oc(CNC(=O)c3cc4ccccc4cc3O)nc2-c2ccc(F)cc2)n1` [Example 244], over 1000 nM.

In turn, `CC(C)NC(=O)c1csc(-c2oc(CN3CCN(C(=O)c4ccc(C#N)cc4)CC3)nc2-c2ccc(F)cc2)n1` [Example 366] displayed an IC50 of over 1000 nM. On to `CC(C)NC(=O)c1csc(-c2c(-c3ccc(F)cc3)noc2CNC(=O)c2cc(O)ccc2[N+](=O)[O-])n1` [Example 708], for which the IC50 is over 1000 nM. The same measure, in the same setting: then `CC(C)NC(=O)c1csc(-c2oc(CN3CCN(C(=O)Cc4ccc(O)c(F)c4)CC3)nc2-c2ccc(F)cc2)n1` [Example 428], with at most 1000 nM; and `CC(C)NC(=O)c1csc(-c2oc(CN3CCN(C(=O)C(NC(=O)OC(C)(C)C)C(C)C)CC3)nc2-c2ccc(F)cc2)n1` (stereo not drawn) [Example 536], with over 1000 nM; and `CC(C)NC(=O)c1csc(-c2oc(CNC(=O)C(Cl)(Cl)Cl)nc2-c2ccc(F)cc2)n1` [Example 165], with over 1000 nM. The same measure, in the same setting: in the case of `Cc1cc(Cl)ccc1-c1noc(C)c1-c1ccn(C(=O)NC(C)C)n1` [Example 24, 3-|3-(4-Chloro-2-methyl-phenyl)-5-methyl-isoxazol-4-yl|-pyrazole-1-carboxylic acid isopropylamide] it was over 1000 nM. In turn, `CC(C)NC(=O)c1csc(-c2c(-c3ccc(F)cc3)noc2CNC(=O)c2ccc(F)cc2Cl)n1` [Example 674] displayed an IC50 of over 1000 nM.

Staying with this test, now noted: p38α kinase; Table 1 Biological Activity.
The compound `CC(C)NC(=O)c1csc(-c2c(-c3ccc(F)cc3)noc2CN2CCN(c3ccc(F)cc3F)CC2)n1` [Example 1602] returned an IC50 of over 1000 nM. Same read-out and setting: then `CCN(CC)CCNC(=O)c1csc(-c2sc(C)nc2-c2ccc(F)cc2)n1` [Example 1750], with at most 1000 nM; and `CC(=O)Nc1ccc(NC(=O)c2csc(-c3sc(C)nc3-c3ccc(F)cc3)n2)cn1` [Example 2001], with at most 1000 nM. As to `CC(C)c1ccc(CNC(=O)c2csc(-c3c(-c4ccc(F)cc4)n[nH]c3C3CCNCC3)n2)cc1` [Example 2118], the IC50 is over 1000 nM. `CC(C)NC(=O)c1csc(-c2c(-c3ccc(F)cc3)n[nH]c2C2CCN(C(=O)c3cc(C(C)C)cc(C(C)C)c3O)CC2)n1` [Example 1018] yielded an IC50 of over 1000 nM.

`O=C(NC1CCC1)c1csc(-c2c(-c3ccc(F)cc3)n[nH]c2C2CCNCC2)n1` [Example 2038] registered an IC50 of at most 1000 nM.

`CCCCN(C)Cc1onc(-c2ccc(F)cc2)c1-c1nc(C(=O)NC(C)C)cs1` [Example 1519]: the concentration for half-maximal inhibition (IC50) was over 1000 nM. Regarding `CCCCN(C)Cc1nc(-c2ccc(F)cc2)c(-c2nc(C(=O)NC(C)C)cs2)o1` [Example 1194], the IC50 was over 1000 nM. Still for that read-out and setting: in the case of `Cc1ccc([C@@H](C)NCc2onc(-c3ccc(F)cc3)c2-c2nc(C(=O)NC(C)C)cs2)cc1` [Example 1447] it was over 1000 nM; in that of `Cc1nc(-c2ccc(F)cc2)c(-c2nc(C(=O)NCCC3CCCN3C)cs2)s1` (stereo not drawn) [Example 1762], over 1000 nM; in that of `CC(C)NC(=O)c1csc(-c2c(-c3ccc(F)cc3)n[nH]c2C2CCN(C(=O)Cc3cccc(O)c3)CC2)n1` [Example 858], over 1000 nM. Same read-out and setting: in the case of `CC(CC(=O)N1CCC(c2[nH]nc(-c3ccc(F)cc3)c2-c2nc(C(=O)NC(C)C)cs2)CC1)CC(C)(C)C` (stereo not drawn) [Example 876] it was over 1000 nM. The same measure, in the same setting: then `Cc1nc(-c2ccc(F)cc2)c(-c2nc(C(=O)NCCCN(C)c3ccccc3)cs2)s1` [Example 1811], with at most 1000 nM. `CC(C)NC(=O)c1csc(-c2c(-c3ccc(F)cc3)noc2CN2CCC(N(C)C(=O)OC(C)(C)C)C2)n1` (stereo not drawn) [Example 1605] returned an IC50 of over 1000 nM. Take `Cc1nc(-c2ccc(F)cc2)c(-c2nc(C(=O)NCCC(C)C)cs2)s1` [Example 1725]: the IC50 is at most 1000 nM.

Compound `CCc1cccc(C)c1NC(=O)c1csc(-c2sc(C)nc2-c2ccc(F)cc2)n1` [Example 1985] came in with an IC50 of over 1000 nM. Compound `Cc1nc(-c2ccc(F)cc2)c(-c2nc(C(=O)Nc3ccc(C)c(C)c3)cs2)s1` [Example 1966] showed an IC50 of over 1000 nM. Still for that read-out and setting: then `COc1cc(OC)cc(C(=O)N2CCC(c3[nH]nc(-c4ccc(F)cc4)c3-c3nc(C(=O)NC(C)C)cs3)CC2)c1` [Example 941], with over 1000 nM. Still for that read-out and setting: then `CC(C)NC(=O)c1csc(-c2oc(CN3CCN(CCN4CCOCC4)CC3)nc2-c2ccc(F)cc2)n1` [Example 1278], with over 1000 nM; and `O=C(NCCOc1ccccc1)c1csc(-c2c(-c3ccc(F)cc3)n[nH]c2C2CCNCC2)n1` [Example 2100], with over 1000 nM. On the same count and under the same terms, in the case of `CCOc1ccccc1CNC(=O)c1csc(-c2sc(C)nc2-c2ccc(F)cc2)n1` [Example 1801] it was at most 1000 nM; in that of `COc1cccc(CNC(=O)c2csc(-c3c(-c4ccc(F)cc4)n[nH]c3C3CCNCC3)n2)c1` [Example 2103], over 1000 nM; in that of `CN1CCCC1CCNC(=O)c1csc(-c2c(-c3ccc(F)cc3)n[nH]c2C2CCNCC2)n1` (stereo not drawn) [Example 2084], over 1000 nM.

`O=C(NCC1CCCO1)c1csc(-c2c(-c3ccc(F)cc3)n[nH]c2C2CCNCC2)n1` (stereo not drawn) [Example 2056] gave a half-maximal inhibitory concentration (IC50) of over 1000 nM. Still for that read-out and setting: then `CC(C)NC(=O)c1csc(-c2c(-c3ccc(F)cc3)n[nH]c2C2CCN(C(=O)C(Cc3ccccc3)NC(=O)OC(C)(C)C)CC2)n1` (stereo not drawn) [Example 1045], with over 1000 nM; and `CC(=O)c1ccc(N2CCN(Cc3nc(-c4ccc(F)cc4)c(-c4nc(C(=O)NC(C)C)cs4)o3)CC2)cc1` [Example 1280], with over 1000 nM; and `Cc1nc(-c2ccc(F)cc2)c(-c2nc(C(=O)Nc3ncccc3C)cs2)s1` [Example 1962], with over 1000 nM.

Regarding `Cc1nc(-c2ccc(F)cc2)c(-c2nc(C(=O)Nc3c(C)cccc3C(C)C)cs2)s1` [Example 1998], the IC50 was over 1000 nM. Still for that read-out and setting: in the case of `COc1ccc(OC)c(CCNCc2nc(-c3ccc(F)cc3)c(-c3nc(C(=O)NC(C)C)cs3)o2)c1` [Example 1171] it was over 1000 nM. Same read-out and setting: then `CC(C)NC(=O)c1csc(-c2c(-c3ccc(F)cc3)noc2CN2CCN(c3ccccn3)CC2)n1` [Example 1568], with over 1000 nM. Still for that read-out and setting: in the case of `Cc1nc(-c2ccc(F)cc2)c(-c2nc(C(=O)N3CCN(c4ccc(C(F)(F)F)cc4)CC3)cs2)s1` [Example 1947] it was over 1000 nM.

The values are drawn from patent US20060252807A1, “Novel ortho-terphenyl inhibitors of p38 kinase and methods of treating inflammatory disorders” (Kalypsys, Inc., priority 2005, published 2006).
